Here are results for 18 compounds from patent publication US20200223837A1, “BENZOFURAN AMIDES AND HETEROAROMATIC ANALOGUES THEREOF FOR USE IN THERAPY” (European Molecular Biology Laboratory, priority 2017, published 2020).

Structures are written as SMILES. Structures can show the parent of a compound that is named as a salt.

The subject of one data set is EGR1 promoter. The data set is described as follows: EGR1 reporter assay (luciferase) in genomically engineered HeLa cell line. The data set is classed as cell-based. The following applies: Homo sapiens; EGR1 reporter HeLa cells, luciferase activity after 24 hours with compound. Put shortly:
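HeLa cells with eGFP-P2A-luciferase knocked in by CRISPR behind the endogenous EGR1 promoter, seeded 2000/well in DMEM with 10% FCS for 24 h. Cells treated 24 h with an 11-point 1:3 series from 100 μM initial DMSO dilution. Readout: luciferase bioluminescence.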

The target in data set [1] is T1, pirin (Homo sapiens, UniProt O00625).
T1 sequence (O00625 1-290): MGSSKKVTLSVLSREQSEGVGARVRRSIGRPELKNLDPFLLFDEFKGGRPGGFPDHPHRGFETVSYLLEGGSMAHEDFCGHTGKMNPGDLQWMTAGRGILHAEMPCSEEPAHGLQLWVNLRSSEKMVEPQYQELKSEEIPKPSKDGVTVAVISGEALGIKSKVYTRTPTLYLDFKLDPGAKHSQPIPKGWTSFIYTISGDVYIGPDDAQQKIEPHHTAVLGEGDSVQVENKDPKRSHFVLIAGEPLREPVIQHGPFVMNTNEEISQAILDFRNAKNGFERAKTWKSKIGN
The data set is described as follows: Surface plasmon resonance on immobilized pirin (Biacore). The following applies: SPR, pirin on CM7 chip, PBS with 2% DMSO and 0.05% tween 20. The data set is classed as binding. Set-up: hexahistidine tag (N); strep tag (C); host or cells: E. coli. On the procedure:
A control chip was also prepared under identical condition but without including pirin in the reaction. […] A series of increasing concentrations of compound, either the control ThPA or a compound of the present invention is then applied to the pirin modified CM7 chip in phosphate buffered saline containing 2% DMSO and 0.05% tween 20 and sensorgrams are recorded covering the association, equilibrium and dissociation phases of the response.
On the technique in general: SPR reads the build-up and loss of mass on a sensor chip optically.

Data set [2] has as its system patient derived CLL samples. The data set is described as follows: Growth inhibition of cells derived from patients with CLL. The following applies: three days incubation, ATPlite. The data set is classed as cell-based. On the procedure:
HeLa, A549 and HCT116 cells were grown in high-glucose Dulbecco's Modified Eagle's Medium (DMEM, Sigma)+10% FBS+1% penicillin and streptomycin+1% L-glutamine, at 37° C. with 5% CO2 and 95% humidity. Cytotoxic screening of the ProQinase panel of 100 cell-lines was performed by ProQinase (Freiburg, Germany). Patient derived CLL isolates were prepared and screened as described by Dietrich et al. (S. Dietrich et al., J Clin Invest, 2018, 128(1), 427-445). Cell viability was determined after 48 hours using the ATP-based CellTiter Glo assay (Promega). Luminescence was measured with a Tecan Infinite F200 Microplate Reader (Tecan Group AG) and with an integration time of 0.2 seconds per well.
The response of 97 tumour samples derived from patients with CLL was investigated. All samples tumor cells were obtained from whole blood, subjected to Ficoll-Isopaque density centrifugation. CD19+B and CD3+ T cells were isolated by positive magnetic cell separation (Miltenyi Biotec). Sorted cells were checked for purity by fluorescence-activated cell sorting (FACS) with CD19/CD20 for healthy control samples and CD19/CD20/CD5 for CLL samples (BD Biosciences). Following sorting, all samples with a CD19/CD20/CD5 purity <98% were subjected to additional sorting, and the average final purity of all sorted samples was >99%. CLL samples with >[…] were not subject to purification.
Cells are incubated for three days with an eight-point three-fold titration series of the test compound from an initial concentration of 30 μM (2000 cells per well in a volume of 50 μl). Cellular viability is estimated by the addition of 25 μL of ATPlite (Perkin Elmer) with the resulting luminescence measured using an EnVision Xcite plate reader (Perkin Elmer).
In addition, the growth inhibitory response of a selection of 27 patient derived CLL isolates (S. Dietrich et al., J Clin Invest, 2018, 128(1), 427-445) against the compounds of examples 64 and 85 was evaluated using the procedure as described above.
A general note: Cellular ATP, detected with luciferase, serves as a proxy for viable cell number.

In data set [3] the target is T1, pirin. The data set is described as follows: Nano differential scanning fluorimetry (NanoDSF), thermal melting of pirin. The following applies: 10 μM pirin in PBS, 20 μM test compound. (Differential scanning fluorimetry follows unfolding on heating by fluorescence.)
From the text: NanoDSF is an advanced Differential Scanning Fluorimetry method for measuring protein stability using intrinsic tryptophan or tyrosine fluorescence. The fluorescence of the tryptophans and tyrosines in a protein is strongly dependent on their close surroundings. Changes in protein structure typically affect both the intensity and the emission wavelength especially of tryptophan fluorescence. By measuring fluorescence intensity at 330 nm and 350 nm, the change in fluorescence intensity and the shift of the fluorescence maximum upon unfolding can be used to detect thermal melting of the protein. Proteins are stabilized when associated with ligands and show a shift in their melting temperatures. NanoDSF has the advantages of being label free and observing the protein in solution.
A 10 μM solution of pirin in phosphate buffered saline, with or without 20 μM test compound, is subject to thermal denaturation under fluorescence monitoring using a Prometheus NT.48 instrument of NanoTemper Technologies. Unliganded pirin has a complex biphasic melting curve. […] If the test compound is a ligand to pirin, it adopts a single thermal transition some 10° C. above that of apopirin.

What is called EC50 is the concentration that produces a half-maximal response. The Kd is the free concentration of one partner at which half of the binding sites on the other are occupied at equilibrium, for simple one-to-one binding. A high value points to a looser complex.

Regarding `Cc1cccc2c(CC(=O)Nc3ncc(C(F)(F)F)s3)coc12` [Example 72, 2-(7-Methylbenzofuran-3-yl)-N-[5-(trifluoromethyl)thiazol-2-yl]acetamide], the EC50 in the data set on EGR1 promoter fell in the range of 0.01 to 10 µM. In addition, the Kd at pirin [1] was 1.6 µM. Also, in data set [2] (45 of 97 samples), the “patient samples killed with an EC50 less than 10 μM” value was determined as 46%. The “patient derived CLL samples with cytotoxic effect” value in data set [2] (90 of 97 samples) amounted to 93%. For the compound `CCc1ccc2c(CC(=O)Nc3nc(-c4ccc(NC(C)=O)cc4)cs3)coc2c1` [Example 52, N-[4-(4-Acetamidophenyl)thiazol-2-yl]-2-(6-ethylbenzofuran-3-yl)acetamide], in the data set on EGR1 promoter, the EC50 fell in the range of 0.01 to 10 µM. In the case of `COc1ccc2c(CC(=O)Nc3nc(-c4ccccn4)cs3)coc2c1` [Example 26, 2-(6-Methoxybenzofuran-3-yl)-N-[4-(2-pyridyl)thiazol-2-yl]acetamide], in the data set with EGR1 promoter, the EC50 lay in the range of 0.01 to 10 µM. The same measure, in the same setting: next, `COc1ccc2c(CC(=O)Nc3nc(CC(N)=O)cs3)coc2c1` [Example 7, N-[4-(2-Amino-2-oxo-ethyl)thiazol-2-yl]-2-(6-methoxybenzofuran-3-yl)acetamide]: 10 to 100 µM. With `Cc1cc2occ(CC(=O)Nc3nc(-c4ccc(CN)cc4)cs3)c2cc1C` [Example 101, N-[4-[4-(Aminomethyl)phenyl]thiazol-2-yl]-2-(5,6-dimethylbenzofuran-3-yl)acetamide, hydrochloride salt], the concentration for a half-maximal effect (EC50) in the data set with EGR1 promoter was in the range of 0.01 to 10 µM. For the same compound, the “increase in the Tm of melting” value on pirin [3] is “approximately 11 °C”.

Regarding `O=C(Cc1coc2cc(Cl)ccc12)Nc1ncc(C(F)(F)F)s1` [Example 60, 2-(6-Chlorobenzofuran-3-yl)-N-[5-(trifluoromethyl)thiazol-2-yl]acetamide], in the data set with EGR1 promoter, the EC50 is 0.01 to 10 µM. The same measure, in the same setting: the figure for `COc1ccc2c(CC(=O)Nc3nc(-c4ccc5c(c4)OCO5)cs3)coc2c1` [Example 78, N-[4-(1,3-Benzodioxol-5-yl)thiazol-2-yl]-2-(6-methoxybenzofuran-3-yl)acetamide] is 0.01 to 10 µM; for `COc1ccc(OC)c(-c2csc(NC(=O)Cc3coc4cc(C)ccc34)n2)c1` [Example 11, N-[4-(2,5-Dimethoxyphenyl)thiazol-2-yl]-2-(6-methylbenzofuran-3-yl)acetamide] it is 10 to 100 µM; for `Cc1cnc(NC(=O)Cc2coc3c(Cl)c(C)ccc23)[nH]1` [Example 57, 2-(7-Chloro-6-methyl-benzofuran-3-yl)-N-(5-methyl-1H-imidazol-2-yl)acetamide] it is 0.01 to 10 µM. Still for that read-out and setting: next, `CCOC(=O)c1csc(NC(=O)Cc2coc3cc(C)ccc23)n1` [Example 13, Ethyl 2-[[2-(6-methylbenzofuran-3-yl)acetyl]amino]thiazole-4-carboxylate]: 10 to 100 µM; `Cc1cnc(NC(=O)Cc2coc3c(Cl)c(C)ccc23)s1` [Example 90, 2-(7-Chloro-6-methyl-benzofuran-3-yl)-N-(5-methylthiazol-2-yl)acetamide]: 0.01 to 10 µM; `Cc1ccc2c(CC(=O)Nc3ncc(C(F)(F)F)[nH]3)coc2c1C` [Example 55, 2-(6,7-Dimethylbenzofuran-3-yl)-N-[5-(trifluoromethyl)-1H-imidazol-2-yl]acetamide]: 0.01 to 10 µM. Take `CCc1ccc2c(CC(=O)Nc3nccs3)coc2c1` [Example 20, 2-(6-Ethylbenzofuran-3-yl)-N-thiazol-2-yl-acetamide]: in the data set with EGR1 promoter, the EC50 was 10 to 100 µM. On the same count and under the same terms, the figure for `COCc1cnc(NC(=O)Cc2coc3cc4c(cc23)CCC4)s1` [Example 65, 2-(6,7-Dihydro-5H-cyclopenta[f]benzofuran-3-yl)-N-[5-(methoxymethyl)thiazol-2-yl]acetamide] is 0.01 to 10 µM; for `COc1ccc2c(CC(=O)Nc3ncc(C(F)(F)F)s3)coc2c1C` [Example 91, 2-(6-Methoxy-7-methyl-benzofuran-3-yl)-N-[5-(trifluoromethyl)thiazol-2-yl]acetamide] it is 0.01 to 10 µM. The same measure, in the same setting: the figure for `Cc1ccc2c(CC(=O)Nc3nc(-c4ccccn4)cs3)coc2c1` [Example 21, 2-(6-Methylbenzofuran-3-yl)-N-[4-(2-pyridyl)thiazol-2-yl]acetamide] is 10 to 100 µM; for `CC(=O)NCCc1ccc(-c2csc(NC(=O)Cc3coc4cc(C)ccc34)n2)s1` [Example 28, N-[4-[5-(2-Acetamidoethyl)-2-thienyl]thiazol-2-yl]-2-(6-methylbenzofuran-3-yl)acetamide] it is 0.01 to 10 µM; for `COc1ccc2nc(NC(=O)Cc3coc4cc5c(cc34)CCC5)sc2c1` [Example 32, 2-(6,7-Dihydro-5H-cyclopenta[f]benzofuran-3-yl)-N-(6-methoxy-1,3-benzothiazol-2-yl)acetamide] it is 0.01 to 10 µM.
